Reference: patent US9358226B2, “Triarylmethane analogs and their use in treating cancers” (Emory University, priority 2007, dated 2016)

Tests used:
ang-2 mRNA = experiment: Quantitative reverse transcription-PCR for ang-2 in bEnd.3 cells; assay type: cell-based, murine; settings: 6.5 hours
Description: bEnd.3 cells were seeded equally into six T-75 flasks and 24 hours later were treated with 0, 1, 5, 10, 15, and 20 μM concentrations of gentian violet (Sigma-Aldrich, no. G2039) in ethanol for 6.5 hours. RNA was extracted and purified using TRI reagent (Sigma-Aldrich, T9424) and measured using spectrophotometer (Perkin-Elmer UV/VIS, Wellesley, Mass.). RNA (1 μg) was used for DNase Amplification (Invitrogen, no. 18068-015, Carlsbad, Calif.) followed by first-strand synthesis for reverse transcription-PCR (Invitrogen SuperScript, no. 12371-019). 96-well Optical Reaction Plate (ABI PRISM, no. 128, Applied Biosystems, Foster City, Calif.) was used for the reverse transcription-PCR reaction. A measure of 2.5 μl of template, which had been diluted 1:10 in crosslinked water, was used in each well and the experiment was performed in triplicate. Ang pt2 (Applied Biosystems, Taqman Gene Expression Assay, Mm00545822_ml) and 18S (Applied Biosystems Taqman Gene Expression Assay, Hs99999901_sl) primers were used along with crosslinked molecular grade water (Cellgro, Mediatech, Inc., Herndon, Va.) and master mix (Applied Biosystems TaqMan Fast Universal PCR Master Mix (2^x)). The reaction was run on the 7900 Applied Biosystems Reader for Absolute Quantification for 96-well plates. C values were analyzed by ΔΔCt method, and the standard error of the mean was calculated (FIG. 3b). The same protocol was used for treatment with brilliant green (Sigma, no. B6756), except that the concentrations used were 0, 0.1, 0.25, 0.5, and 0.75 μM (FIG. 3a).

[1] = ESR spectrum with superoxide dismutase; settings: room temperature ESR, conditions as in Li et al.
Description: Li used ESR to confirm the production of NADPH-dependent.O2—by isolated endosomes (Li et al., Molecular and Cellular Biology, January 2006, p. 140-154, 26(1):140-154 (2006)). ESR assays were conducted at room temperature using a Bruker model EMX ESR spectrometer (Bruker). Vesicular fractions from each sample were mixed with the spin trap, 50 mM 5,5-dimethyl-1-pyrroline N-oxide (DMPO), in a total volume of 500 μl of PBS, pH 7.4. This solution contained iminodiacetic acid-chelating resin (10 ml/liter; Sigma-Aldrich). The reaction was initiated by adding NADPH to 100 μM and was immediately placed into the ESR spectrometer. DMPO-hydroxyl radical adduct formation was assayed for 10 min. Instrument settings were as follows: receiver gain, 1×10^6; modulation frequency, 100 kHz; microwave power, 40.14 mW; modulation amplitude, 1.0 G; and sweep rate, 1 G/s.

[2] = test system: P. falciparum Dd2 (Multidrug Resistant); experiment: Malaria model, multidrug resistant P. falciparum; assay type: cell-based; settings: Plasmodium falciparum, DD2; read-out: IC50 (nM) vs P. falciparum Dd2 (Multidrug Resistant)
Description: The compounds were tested in a malaria model using both chloroquine sensitive and multidrug resistant P. falciparum. The malaria model was the same as published in JAC Advance Access published online on Jul. 30, 2008, Journal of Antimicrobial Chemotherapy, doi:10.1093/jac/dkn315, the contents of which are hereby incorporated by reference, and the data is summarized in the table below.
Briefly, the assay involves exposing both chloroquine sensitive and multidrug resistant P. falciparum to the compounds. After one hour of exposure to the highest concentration of the compound, followed by removal of the compound, the growth of all stages of P. falciparum was observed. The reduction in the growth stages was then compared with untreated control parasites. […] The presence of strong inhibition (defined herein as 10% growth) of all parasite stages was evaluated when the parasites were exposed to various concentrations of various compounds.

Nox2 = molecular target: T1, Nox2 (Homo sapiens, UniProt P04839); experiment: H2O2 production, homovanillic acid assay, Cos-phox cells; assay type: cell-based; settings: phorbol 12-myristate 13-acetate stimulated, 1 hour 37° C.
T1 construct: expressed in transfected cells; host or cells: COS-phox cells
T1 sequence (P04839 2-570 limits assumed): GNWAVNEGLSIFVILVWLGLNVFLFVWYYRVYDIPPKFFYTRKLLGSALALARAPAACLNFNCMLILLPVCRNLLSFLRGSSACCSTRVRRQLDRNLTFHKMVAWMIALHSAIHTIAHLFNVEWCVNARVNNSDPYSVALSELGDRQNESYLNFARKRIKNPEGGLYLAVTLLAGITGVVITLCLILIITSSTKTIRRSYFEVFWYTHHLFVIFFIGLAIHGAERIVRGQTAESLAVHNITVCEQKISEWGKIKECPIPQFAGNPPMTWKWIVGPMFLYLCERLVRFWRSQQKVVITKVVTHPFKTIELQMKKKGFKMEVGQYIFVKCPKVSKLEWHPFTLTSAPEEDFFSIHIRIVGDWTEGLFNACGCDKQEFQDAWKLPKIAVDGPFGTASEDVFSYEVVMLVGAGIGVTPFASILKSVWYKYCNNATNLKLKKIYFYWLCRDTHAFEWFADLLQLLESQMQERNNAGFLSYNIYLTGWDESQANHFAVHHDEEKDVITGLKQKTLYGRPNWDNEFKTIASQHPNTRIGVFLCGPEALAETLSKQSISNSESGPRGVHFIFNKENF
T1 sequence (P13498 2-195 partner limits assumed): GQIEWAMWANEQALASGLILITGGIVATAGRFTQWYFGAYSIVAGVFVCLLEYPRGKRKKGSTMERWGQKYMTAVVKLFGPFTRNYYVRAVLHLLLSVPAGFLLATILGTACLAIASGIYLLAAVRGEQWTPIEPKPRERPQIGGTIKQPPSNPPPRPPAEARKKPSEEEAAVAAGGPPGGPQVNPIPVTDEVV
Description: After 1 hour incubation at 37° C., the reaction was stopped and H2O2 production was measured using the homovanillic acid assay. The ability of these drugs to inhibit production of H2O2 is shown as a percentage relative to the untreated control (100%). […] Optimal Nox2 activity requires phorbol 12-myristate 13-acetate stimulation whereas Nox4 activity is constitutive.
H2O2 release was measured using the homovanillic acid assay as described previously (Martyn, 2006). Briefly, 1.5-1.75×10^5 cells/well of a 12-well plate were seeded. The following day, cells were washed once with Hank's balanced salt solution and then preincubated for 15 minutes with either gentian violet (10-20 nM) or brilliant green (0.5-1.0 μM) in 1 ml of media. The cells were then washed once with Hank's balanced salt solution. Gentian violet or brilliant green was added at the same concentrations as in pretreatment to 0.5 ml of homovanillic acid assay solution (100 μM homovanillic acid assay, 4 U/ml horseradish peroxidase in Hank's balanced salt solution with Ca^2+ and Mg^2+) and incubated with the cells for 1 hour at 37° C. Cos-phox cells were additionally stimulated with 0.4 μg/ml phorbol 12-myristate 13-acetate. […] Fluorescence was read on a BioTek Synergy HT (BioTek Instruments Inc., Winooski, Vermont, […].) with an excitation of 320 nm and emission of 440 nm.

- IC50 [2]: 0.44 nM
- inhibition of Nox2 activity (H2O2 production) (Nox2): inhibited
SMILES: CN(C)c1ccc(C(=C2C=CC(=[N+](C)C)C=C2)c2ccc(N(C)C)cc2)cc1 [Gentian Violet (GV), hexamethyl pararosaniline chloride]
- ang2 expression compared to control (ang-2 mRNA; 1 and 5 μM): increased
- inhibition of ang-2 mRNA (ang-2 mRNA; higher concentrations (above 5 μM, up to 20 μM)): 70-90%
- radical formation with superoxide (ESR) [1]: appear to form a radical by reacting with superoxide
